The source made the active and inactive calls. The calls are words filed in the database; no cut-off is given here.
Tests used:
[1] = target: T1, Sigma non-opioid intracellular receptor 1 (Homo sapiens, UniProt Q99720); test: Displacement of [3H]-(+)-pentazocine from human sigma1 receptor transfected in HEK293 cell membranes assessed as inhibition constant incubated for 120 mins in presence of haloperidol by microbeta scintillation counter analysis; set-up: species or system Cell membrane
Homo sapiens = species: Homo sapiens; test: Selectivity ratio of Ki for displacement of [3H]-(+)-pentazocine from human sigma1 receptor transfected in HEK293 cell membranes assessed as inhibition constant to Ki for displacement of [3H]-1,3-di-O-tolylguanidine from human sigma 2 receptor/TMEM97 transfected in sigma 1 receptor knockout HEK293 cell membranes assessed as inhibition constant
[2] = target: T2, Sigma intracellular receptor 2 (Homo sapiens, UniProt Q5BJF2); test: Displacement of [3H]-1,3-di-O-tolylguanidine from human sigma 2 receptor/TMEM97 transfected in sigma 1 receptor knockout HEK293 cell membranes assessed as inhibition constant measured after 120 mins by microbeta scintillation counting analysis; set-up: species or system Cell membrane
[3] = Metabolic stability in human liver microsome assessed as parent compound remaining at 1 uM measured after 1 hr in presence of NADPH regenerating system by UPLC-MS/MS analysis; assay type: ADME; conditions: liver microsomes, read-out: Stability
[4] = Metabolic stability in rat liver microsome assessed as parent compound remaining at 1 uM measured after 1 hr in presence of NADPH regenerating system by UPLC-MS/MS analysis; assay type: ADME; conditions: liver microsomes, read-out: Stability
[5] = Metabolic stability in mouse liver microsome assessed as parent compound remaining at 1 uM measured after 1 hr in presence of NADPH regenerating system by UPLC-MS/MS analysis; assay type: ADME; conditions: liver microsomes, read-out: Stability
[6] = target: Voltage-gated inwardly rectifying potassium channel KCNH2 (Homo sapiens, UniProt Q12809); test: Inhibition of hERG expressed in CHO cells at holding potential of -80 mV measured for 15 seconds by whole cell patch clamp assay; assay type: toxicity, cell-based
[7] = target: T1, Sigma non-opioid intracellular receptor 1; test: Binding affinity to sigma1 receptor (unknown origin) assessed as inhibition constant
[8] = target: Sigma non-opioid intracellular receptor 1 (Rattus norvegicus, UniProt Q9R0C9); test: Displacement of [3H](+)-pentazocine from rat liver membranes sigma 1 receptor assessed as inhibition constant incubated for 120 mins; assay type: cell membranes, Membrane
[9] = target: T3, Sigma intracellular receptor 2 (Rattus norvegicus, UniProt Q5U3Y7); test: Displacement of [3H]di-o-tolylguanidine from rat liver membrane sigma 2 assessed as inhibition constant incubated for 120 mins; assay type: cell membranes
T3 sequence (Q5U3Y7 whole entry): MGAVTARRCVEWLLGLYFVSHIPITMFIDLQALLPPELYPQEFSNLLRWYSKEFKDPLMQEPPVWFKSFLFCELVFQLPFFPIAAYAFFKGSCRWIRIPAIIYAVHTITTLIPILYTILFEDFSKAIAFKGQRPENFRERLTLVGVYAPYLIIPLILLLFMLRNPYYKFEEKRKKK

[10] = target: T2, Sigma intracellular receptor 2; test: Binding affinity to sigma2 receptor (unknown origin) assessed as inhibition constant
Neuron = test: Neuroprotective activity against MPP+ induced rat neurons at 10 uM pretreated with compond for 1 hr followed by MPP+ addition and measured after 48 hrs; assay type: functional, cell-based; conditions: time 49.0 hrs
[11] = Binding affinity to sigma1 receptor (unknown origin) assessed as inhibition constant
[12] = target: T3, Sigma intracellular receptor 2; test: Displacement of [3H]di-o-tolylguanidine from rat liver membrane sigma 2 receptor assessed as inhibition constant in presence of haloperidol; assay type: cell membranes
[13] = target: Sigma non-opioid intracellular receptor 1 (Cavia porcellus, UniProt Q60492)
Chain of Sigma non-opioid intracellular receptor 1 (Cavia porcellus, UniProt Q60492) (Q60492 whole entry): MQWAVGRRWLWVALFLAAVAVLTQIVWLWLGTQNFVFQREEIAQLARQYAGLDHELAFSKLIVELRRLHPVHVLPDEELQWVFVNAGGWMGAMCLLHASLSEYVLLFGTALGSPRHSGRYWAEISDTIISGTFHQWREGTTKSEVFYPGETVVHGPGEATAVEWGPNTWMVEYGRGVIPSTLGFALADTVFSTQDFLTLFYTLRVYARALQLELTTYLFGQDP
Description: Displacement of [3H](+)-pentazocine from sigma 1 receptor in guinea pig brain membranes assessed as inhibition constant incubated for 120 mins in presence of haloperidol

Chain of Voltage-gated inwardly rectifying potassium channel KCNH2 (Q12809 whole entry): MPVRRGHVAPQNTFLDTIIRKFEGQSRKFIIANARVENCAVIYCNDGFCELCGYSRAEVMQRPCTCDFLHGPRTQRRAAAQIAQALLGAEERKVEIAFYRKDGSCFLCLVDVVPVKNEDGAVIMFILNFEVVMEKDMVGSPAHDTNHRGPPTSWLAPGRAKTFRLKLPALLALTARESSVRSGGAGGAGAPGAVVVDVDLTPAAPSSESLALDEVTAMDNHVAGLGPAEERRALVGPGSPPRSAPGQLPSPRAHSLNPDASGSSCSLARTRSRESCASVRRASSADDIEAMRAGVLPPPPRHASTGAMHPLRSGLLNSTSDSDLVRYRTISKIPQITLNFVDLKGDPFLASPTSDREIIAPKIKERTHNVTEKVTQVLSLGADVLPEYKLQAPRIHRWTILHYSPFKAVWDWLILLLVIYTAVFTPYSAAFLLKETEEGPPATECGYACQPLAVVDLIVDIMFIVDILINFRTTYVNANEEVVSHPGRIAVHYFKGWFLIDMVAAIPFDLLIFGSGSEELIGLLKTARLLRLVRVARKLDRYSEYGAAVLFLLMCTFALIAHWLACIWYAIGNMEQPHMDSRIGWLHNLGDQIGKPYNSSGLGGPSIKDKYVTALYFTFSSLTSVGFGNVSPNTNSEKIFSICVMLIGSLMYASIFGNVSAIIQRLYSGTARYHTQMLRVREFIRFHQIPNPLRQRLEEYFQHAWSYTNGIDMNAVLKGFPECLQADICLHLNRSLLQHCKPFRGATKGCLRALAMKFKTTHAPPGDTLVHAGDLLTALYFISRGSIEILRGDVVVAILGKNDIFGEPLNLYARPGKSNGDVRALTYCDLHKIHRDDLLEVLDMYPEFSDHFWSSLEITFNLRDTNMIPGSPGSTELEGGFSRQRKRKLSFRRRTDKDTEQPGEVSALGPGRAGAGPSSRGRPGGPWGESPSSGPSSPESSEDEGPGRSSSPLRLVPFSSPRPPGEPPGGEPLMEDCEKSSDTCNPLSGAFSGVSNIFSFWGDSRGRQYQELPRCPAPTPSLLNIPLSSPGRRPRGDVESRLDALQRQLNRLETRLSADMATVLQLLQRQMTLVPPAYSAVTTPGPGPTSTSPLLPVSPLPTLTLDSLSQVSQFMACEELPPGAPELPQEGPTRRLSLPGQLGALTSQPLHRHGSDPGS
T2 sequence (Q5BJF2 whole entry): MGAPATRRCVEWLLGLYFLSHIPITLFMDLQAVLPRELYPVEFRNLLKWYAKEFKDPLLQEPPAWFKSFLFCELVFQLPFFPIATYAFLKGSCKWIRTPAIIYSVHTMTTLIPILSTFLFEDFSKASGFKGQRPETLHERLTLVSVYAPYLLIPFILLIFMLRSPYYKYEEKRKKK
T1 sequence (Q99720 whole entry): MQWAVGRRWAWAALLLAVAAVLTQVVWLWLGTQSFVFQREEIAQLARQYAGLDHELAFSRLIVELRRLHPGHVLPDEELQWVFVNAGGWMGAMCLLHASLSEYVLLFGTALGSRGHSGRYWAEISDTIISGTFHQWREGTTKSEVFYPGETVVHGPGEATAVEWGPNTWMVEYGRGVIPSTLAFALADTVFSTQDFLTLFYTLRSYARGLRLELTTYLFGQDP
Chain of Sigma non-opioid intracellular receptor 1 (Rattus norvegicus, UniProt Q9R0C9) (Q9R0C9 whole entry): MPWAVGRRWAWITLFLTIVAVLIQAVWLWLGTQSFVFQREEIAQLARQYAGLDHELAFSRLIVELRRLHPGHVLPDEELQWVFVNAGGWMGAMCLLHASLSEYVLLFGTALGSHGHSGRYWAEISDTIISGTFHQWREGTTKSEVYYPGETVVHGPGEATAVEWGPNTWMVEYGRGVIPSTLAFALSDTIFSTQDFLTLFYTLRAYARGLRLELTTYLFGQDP

SMILES	Ki [1] [nM]	Ratio Ki (Homo sapiens)	Ki [2] [nM]	remaining at 1 h, 1 µM [3] [%]	remaining at 1 h, 1 µM [4] [%]	remaining at 1 h, 1 µM [5] [%]	IC50 [6] [nM]	other results
Cc1cc(-c2cnc(C(F)(F)F)nc2C2CCN(CC(=O)N3CCOCC3)CC2)on1	> 1000	> 166	6	78	71	77	> 10000	
CCc1ncc(-c2cc(C)no2)c(C2CCN(CC(=O)N3CCOCC3)C2)n1 (stereo not given)	> 1000		> 1000					
O=C(CN1CCC(CN2Cc3ccccc3C2=O)CC1)c1ccc(F)cc1 [ROLUPERIDONE]								Ki [7]: ≥ 1000 nM
CC(=O)c1ccc2c(c1)oc(=O)n2CCCCN1CCN(c2ccc(F)cc2N)CC1								Ki [8]: 87 nM; Ki [9]: 3.5 nM
Cc1cc(-c2cncnc2C2CCN(CC(=O)N3CCOCC3)CC2)on1	> 1000	> 2	457					
COc1cc2c(cc1OC)CN(CCCCn1c(=O)n(C)c3ccccc31)CC2								Ki [7]: 560 nM; Ki [10]: 0.43 nM
CCc1ncc(-c2ccccn2)c(C2CCN(CC(=O)N3CCOCC3)CC2)n1	> 1000	> 3	319					
CC(C)(C)Oc1cc(CCC(C)(C)N2Cc3ccc(S(C)(=O)=O)cc3C2)ccc1O	23	4.6	5	60	37	62		Ki [10]: 8 nM; Activity (Neuron): Active; Ki [11]: 63 nM
CCc1ncc(-c2cc(C)no2)c(C2CCN(CC(=O)N3CCC4(CCOC4)CC3)CC2)n1	2150	2150	1	82	92	88	> 10000	
CCc1ncc(-c2cc(C)no2)c(C2CCN(CCC(=O)N3CCOCC3)CC2)n1	> 1000		62	86	95	94	4500	
CCc1ncc(-c2cc(C)no2)c(C2CCN(CCN3CCOCC3)CC2)n1	150		38	75	67	56	> 10000	
CCc1ncc(-c2cc(C)no2)c(C2CCN(CC(=O)N3CCCOCC3)CC2)n1	> 1000	> 200	5	77	84	69	> 10000	
CCCc1ncc(-c2cc(C)no2)c(C2CCN(CC(=O)N3CCOCC3)CC2)n1	> 1000	> 16	61	89	90	89	5400	
CCn1ncc(-c2cc(C)no2)c1C1CCN(CC(=O)N2CCOCC2)CC1	> 1000		> 1000					
OCCCN1CCCC2CC1c1cc(-c3ccc(C(F)(F)F)cc3)ccc12 (stereo not given)								Ki [7]: 1280 nM; Ki [10]: 46 nM
CCn1cc(-c2cc(C)no2)c(C2CCN(CC(=O)N3CCOCC3)CC2)n1	> 1000		496					
CCc1ncc(-c2cc(C)no2)c([C@H]2CCCN(CC(=O)N3CCOCC3)C2)n1	> 10000		788					
CCc1ncc(-c2cc(C)no2)c(C2CCN(CC(=O)N3CCCN(C)CC3)CC2)n1	> 1000	> 10	98	85	97	83	> 10000	
CN1CC[C@]2(c3cccc(O)c3)CC(=O)/C(=C/c3ccc(Cl)c(Cl)c3)[C@H]1C2								Ki [12]: 13.4 nM; Ki [13]: 7440 nM
Cc1cc(-c2cnc(C(C)C)nc2C2CCN(CC(=O)N3CCOCC3)CC2)on1	> 1000	> 21	47	80	81	65	3600	
CCc1ncc(-c2nccn2C)c(C2CCN(CC(=O)N3CCOCC3)CC2)n1	> 10000	> 10	951					
Cc1cc(-c2cnc(C3CC3)nc2C2CCN(CC(=O)N3CCOCC3)CC2)on1	789	789	1	86	84	97	4200	
Cc1cc(-c2cnc(C)nc2C2CCN(C(=O)CN3CCOCC3)CC2)on1	> 1000		> 1000					
CCc1ncc(-c2cc(C)no2)c([C@@H]2CCCN(CC(=O)N3CCOCC3)C2)n1	> 10000		164					
CCc1ncc(-c2ccncc2)c(C2CCN(CC(=O)N3CCOCC3)CC2)n1	807	1.1	727					
CCc1ncc(-c2cccc(C)n2)c(C2CCN(CC(=O)N3CCOCC3)CC2)n1	> 1000	> 8.6	116	83	96	76		
CCc1ncc(-c2cc(C)no2)c(C2CCCN(CC(=O)N3CCOCC3)CC2)n1 (stereo not given)	237		131					
CCc1ncc(-c2cc(C)no2)c(C2CCN(CC(=O)N3CCCCC3)CC2)n1	882	220	4	58	101	59	8700	
Cc1cc(-c2cnc(C)nc2C2CCN(CC(=O)N3CCOCC3)CC2)on1	8270	140	59	104	100	87	> 10000	

Reference: ChEMBL document CHEMBL5321285 (J Med Chem, 2023)
